Source: the supplement of paper PMC10307832

Columns and labels:
Assay in all cases: relative viability (nuclei count vs DMSO), 5 days (fraction); higher = more cells survive
DM3189 + Palbociclib = compound: C1CN(CCN1)C2=CC=C(C=C2)C3=CN4C(=C(C=N4)C5=CC=NC6=CC=CC=C56)N=C3 [DM3189] + CC(=O)c1c(C)c2cnc(Nc3ccc(N4CCNCC4)cn3)nc2n(C2CCCC2)c1=O [Palbociclib] (partner 0.5 µM)
Procedure, shortened: (§1)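 A single step with final 0.05% Triton X-100, 1% formaldehyde and 1 ug/ml Hoechst fixed the cells and stained nuclei 5 days after treatment. Lung cancer cell lines in 1536-well plates had been treated by pin tool the day after seeding with one drug alone or a fixed anchor-drug dose plus five library-drug doses (not always all listed) in √10 steps, and nuclei were counted on 4× images. Relative viability is the ratio of nuclei in treated wells to nuclei in vehicle wells, taken as the median of duplicate plates.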

DM3189 + Lapatinib = compound: C1CN(CCN1)C2=CC=C(C=C2)C3=CN4C(=C(C=N4)C5=CC=NC6=CC=CC=C56)N=C3 [DM3189] + CS(=O)(=O)CCNCc1ccc(-c2ccc3ncnc(Nc4ccc(OCc5cccc(F)c5)c(Cl)c4)c3c2)o1 [Lapatinib] (partner 2 µM)
Procedure, shortened: as §1

DM3189 + Phenformin = compound: C1CN(CCN1)C2=CC=C(C=C2)C3=CN4C(=C(C=N4)C5=CC=NC6=CC=CC=C56)N=C3 [DM3189] + N=C(N)NC(=N)NCCc1ccccc1 [Phenformin] (partner 250 µM)
Procedure, shortened: as §1

DM3189 + Pemetrexed = compound: C1CN(CCN1)C2=CC=C(C=C2)C3=CN4C(=C(C=N4)C5=CC=NC6=CC=CC=C56)N=C3 [DM3189] + Nc1nc2[nH]cc(CCc3ccc(C(=O)N[C@@H](CCC(=O)O)C(=O)O)cc3)c2c(=O)[nH]1 [Pemetrexed] (partner 0.2 µM)
Procedure, shortened: as §1

DM3189 + Olaparib = compound: C1CN(CCN1)C2=CC=C(C=C2)C3=CN4C(=C(C=N4)C5=CC=NC6=CC=CC=C56)N=C3 [DM3189] + O=C(c1cc(Cc2n[nH]c(=O)c3ccccc23)ccc1F)N1CCN(C(=O)C2CC2)CC1 [Olaparib] (partner 8 µM)
Procedure, shortened: as §1

Row | Cell Line | relative viability (DM3189 + Palbociclib; first compound 0.08 µM) | relative viability (DM3189 + Palbociclib; first compound 0.253 µM) | relative viability (DM3189 + Palbociclib; first compound 0.8 µM) | relative viability (DM3189 + Palbociclib; first compound 2.53 µM) | relative viability (DM3189 + Lapatinib; first compound 0.08 µM) | relative viability (DM3189 + Lapatinib; first compound 0.253 µM) | relative viability (DM3189 + Lapatinib; first compound 0.8 µM) | relative viability (DM3189 + Lapatinib; first compound 2.53 µM) | relative viability (DM3189 + Phenformin; first compound 0.08 µM) | relative viability (DM3189 + Phenformin; first compound 0.253 µM) | relative viability (DM3189 + Phenformin; first compound 0.8 µM) | relative viability (DM3189 + Phenformin; first compound 2.53 µM) | relative viability (DM3189 + Pemetrexed; first compound 0.08 µM) | relative viability (DM3189 + Pemetrexed; first compound 0.253 µM) | relative viability (DM3189 + Pemetrexed; first compound 0.8 µM) | relative viability (DM3189 + Pemetrexed; first compound 2.53 µM) | relative viability (DM3189 + Olaparib; first compound 0.08 µM) | relative viability (DM3189 + Olaparib; first compound 0.253 µM) | relative viability (DM3189 + Olaparib; first compound 0.8 µM) | relative viability (DM3189 + Olaparib; first compound 2.53 µM)
1 | LXF-289 | 0.597 | 0.606 | 0.565 | 0.562 | 0.9 | 0.934 | 0.868 | 0.981 | 0.529 | 0.491 | 0.501 | 0.527 | 0.932 | 0.986 | 0.897 | 0.917 | 1.08 | 1.06 | 1.06 | 1.11
2 | NCI-H23 | 0.468 | 0.43 | 0.496 | 0.485 | 1.32 | 0.888 | 0.994 | 1.19 | 0.865 | 0.761 | 0.643 | 0.826 | 0.759 | 0.635 | 0.641 | 0.676 | 0.253 | 0.305 | 0.233 | 0.294
3 | NCI-H322M | 0.501 | 0.489 | 0.516 | 0.43 | 0.651 | 0.633 | 0.508 | 0.603 | 0.866 | 0.782 | 0.651 | 0.652 | 0.64 | 0.582 | 0.557 | 0.501 | 0.938 | 0.793 | 0.743 | 0.768
4 | NCI-H358 | 0.278 | 0.13 | 0.126 | 0.127 | 0.489 | 0.359 | 0.523 | 0.424 | 0.453 | 0.311 | 0.323 | 0.269 | 0.172 | 0.155 | 0.181 | 0.168 | 0.7 | 0.539 | 0.56 | 0.395
5 | NCI-H460 | 0.305 | 0.187 | 0.158 | 0.16 | 1.45 | 1.03 | 0.825 | 0.235 | 0.737 | 0.535 | 0.451 | 0.545 | 0.0522 | 0.0522 | 0.0641 | 0.0646 | 0.449 | 0.415 | 0.325 | 0.619
6 | NCI-H520 | 0.206 | 0.202 | 0.206 | 0.173 | 0.902 | 0.679 | 0.644 | 0.42 | 0.577 | 0.309 | 0.324 | 0.366 | 0.603 | 0.492 | 0.49 | 0.296 | 0.348 | 0.339 | 0.293 | 0.233
7 | NCI-H647 | 0.4 | 0.378 | 0.273 | 0.217 | 1.36 | 0.823 | 0.622 | 0.463 | 0.664 | 0.4 | 0.546 | 0.228 | 0.185 | 0.178 | 0.173 | 0.146 | 0.459 | 0.492 | 0.368 | 0.163
8 | NCI-H650 | 0.321 | 0.311 | 0.304 | 0.369 | 0.992 | 0.593 | 0.765 | 0.521 | 0.518 | 0.497 | 0.47 | 0.489 | 1.02 | 0.956 | 0.958 | 0.936 | 0.355 | 0.428 | 0.347 | 0.329
9 | NCI-H661 | 0.411 | 0.394 | 0.396 | 0.381 | 0.564 | 0.579 | 0.53 | 0.614 | 0.268 | 0.271 | 0.268 | 0.281 | 1.03 | 0.861 | 0.955 | 0.884 | 0.845 | 0.75 | 0.708 | 0.71
10 | NCI-H838 | 0.265 | 0.224 | 0.174 | 0.205 | 1.1 | 0.867 | 0.65 | 0.897 | 0.775 | 0.507 | 0.471 | 0.385 | 0.238 | 0.255 | 0.239 | 0.22 | 0.871 | 0.711 | 0.543 | 0.556
11 | NCI-H1355 | 0.357 | 0.416 | 0.349 | 0.387 | 1.07 | 0.972 | 0.819 | 0.919 | 0.438 | 0.43 | 0.405 | 0.394 | 1.03 | 0.986 | 0.821 | 1.03 | 0.723 | 0.687 | 0.689 | 0.785
12 | NCI-H1395 | 0.528 | 0.593 |  | 0.605 | 1.1 | 0.92 | 0.724 | 0.896 | 0.465 | 0.431 | 0.456 | 0.442 | 1.13 | 0.786 |  | 0.806 | 0.421 | 0.463 |  | 0.39
13 | NCI-H1437 | 0.359 | 0.364 | 0.339 | 0.388 | 0.793 | 0.767 | 0.765 | 0.852 | 0.363 | 0.325 | 0.308 | 0.323 | 0.34 | 0.333 | 0.326 | 0.293 | 0.627 | 0.633 | 0.609 | 0.592
14 | NCI-H1650 | 0.407 | 0.292 | 0.349 | 0.309 | 0.838 | 0.806 | 0.71 | 0.777 | 0.5 | 0.347 | 0.387 | 0.354 | 0.311 | 0.347 | 0.351 | 0.37 | 0.801 | 0.712 | 0.738 | 0.838
15 | NCI-H1651 | 0.543 | 0.554 | 0.582 | 0.574 | 1.08 | 0.852 | 0.826 | 0.984 | 0.45 | 0.339 | 0.335 | 0.272 | 0.729 | 0.556 | 0.553 | 0.541 | 0.191 | 0.179 | 0.168 | 0.177
